{"source": "patent US20100286038A1", "about": "“FORMULATION CONTAINING CYCLIN-DEPENDENT KINASE INHIBITING COMPOUND AND METHOD OF TREATING TUMORS USING THE SAME” (priority 2007, published 2010)", "key": {"Rsk2": {"target": "T1, Rsk2 (Homo sapiens, UniProt P51812)", "T1 construct": "purchased Upstate", "T1 sequence (P51812 whole entry, species assumed)": "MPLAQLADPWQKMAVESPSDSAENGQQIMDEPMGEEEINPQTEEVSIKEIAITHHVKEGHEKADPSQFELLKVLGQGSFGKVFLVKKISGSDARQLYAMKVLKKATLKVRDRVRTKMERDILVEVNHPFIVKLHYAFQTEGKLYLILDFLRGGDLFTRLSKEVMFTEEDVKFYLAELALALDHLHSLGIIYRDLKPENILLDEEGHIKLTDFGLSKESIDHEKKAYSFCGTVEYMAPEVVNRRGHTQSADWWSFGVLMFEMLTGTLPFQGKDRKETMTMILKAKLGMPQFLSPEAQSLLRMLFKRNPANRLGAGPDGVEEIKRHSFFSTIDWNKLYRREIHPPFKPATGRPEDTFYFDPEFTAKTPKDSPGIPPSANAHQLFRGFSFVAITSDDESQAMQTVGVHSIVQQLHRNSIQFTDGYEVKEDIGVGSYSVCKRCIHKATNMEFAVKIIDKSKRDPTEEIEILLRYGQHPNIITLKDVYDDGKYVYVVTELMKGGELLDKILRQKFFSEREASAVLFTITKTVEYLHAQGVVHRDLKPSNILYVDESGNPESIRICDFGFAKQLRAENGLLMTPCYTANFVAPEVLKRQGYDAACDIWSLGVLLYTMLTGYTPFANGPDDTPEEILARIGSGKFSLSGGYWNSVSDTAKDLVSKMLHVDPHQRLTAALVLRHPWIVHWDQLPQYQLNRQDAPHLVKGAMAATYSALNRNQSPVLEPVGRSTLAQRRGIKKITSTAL", "test": "Upstate kinase Profiler counter-screening", "format": "biochemical"}, "MSK1": {"target": "T2, MSK1 (Homo sapiens, UniProt O75582)", "T2 construct": "purchased Upstate", "T2 sequence (O75582 whole entry, species assumed)": "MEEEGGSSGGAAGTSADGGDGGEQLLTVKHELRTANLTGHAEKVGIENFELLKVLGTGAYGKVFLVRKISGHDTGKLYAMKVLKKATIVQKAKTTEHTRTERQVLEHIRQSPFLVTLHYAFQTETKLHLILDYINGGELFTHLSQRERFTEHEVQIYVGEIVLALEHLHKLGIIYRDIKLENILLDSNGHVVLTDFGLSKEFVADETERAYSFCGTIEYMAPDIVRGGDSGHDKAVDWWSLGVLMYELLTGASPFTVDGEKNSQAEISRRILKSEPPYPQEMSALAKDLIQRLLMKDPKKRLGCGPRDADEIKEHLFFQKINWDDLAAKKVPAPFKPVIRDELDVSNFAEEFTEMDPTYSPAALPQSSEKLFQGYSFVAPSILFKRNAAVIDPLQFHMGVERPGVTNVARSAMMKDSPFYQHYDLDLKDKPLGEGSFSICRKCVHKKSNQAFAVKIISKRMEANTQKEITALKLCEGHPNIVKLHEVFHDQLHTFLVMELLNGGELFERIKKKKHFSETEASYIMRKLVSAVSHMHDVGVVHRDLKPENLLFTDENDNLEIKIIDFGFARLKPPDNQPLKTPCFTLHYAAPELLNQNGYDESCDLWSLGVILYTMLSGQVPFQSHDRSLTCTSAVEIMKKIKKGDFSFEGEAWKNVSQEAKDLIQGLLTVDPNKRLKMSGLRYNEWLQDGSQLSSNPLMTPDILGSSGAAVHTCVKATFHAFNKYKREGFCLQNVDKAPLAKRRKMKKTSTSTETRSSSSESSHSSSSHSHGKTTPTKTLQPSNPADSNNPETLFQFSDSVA", "test": "Upstate kinase Profiler counter-screening", "format": "biochemical"}, "A2780 cells": {"test_system": "A2780 cells", "conditions": "two hours exposure, 24 hours after exposure", "description": "Cells were then fixed, stained with an FITC-conjugated, anti-BrdU monoclonal antibody and propidium iodide. The cells thus prepared were analyzed using 2-color flow cytometry with doublet-discrimination."}, "cSRC": {"target": "T3, cSRC (Homo sapiens, UniProt P12931)", "T3 construct": "purchased Upstate", "T3 sequence (P12931 whole entry, species assumed)": "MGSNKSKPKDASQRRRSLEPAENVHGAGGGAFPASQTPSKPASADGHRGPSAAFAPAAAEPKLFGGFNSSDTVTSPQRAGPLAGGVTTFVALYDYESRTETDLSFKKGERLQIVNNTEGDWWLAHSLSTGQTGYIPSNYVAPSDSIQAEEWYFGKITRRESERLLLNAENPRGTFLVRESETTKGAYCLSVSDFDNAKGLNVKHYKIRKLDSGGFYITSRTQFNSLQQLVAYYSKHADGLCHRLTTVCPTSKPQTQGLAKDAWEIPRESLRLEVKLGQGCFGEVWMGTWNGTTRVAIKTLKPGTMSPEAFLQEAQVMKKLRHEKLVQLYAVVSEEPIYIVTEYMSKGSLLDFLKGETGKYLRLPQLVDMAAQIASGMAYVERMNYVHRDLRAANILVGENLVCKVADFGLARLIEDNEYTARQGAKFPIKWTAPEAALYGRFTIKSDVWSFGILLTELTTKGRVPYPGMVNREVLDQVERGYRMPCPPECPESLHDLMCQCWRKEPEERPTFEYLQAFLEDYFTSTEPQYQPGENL", "test": "Upstate kinase Profiler counter-screening", "format": "biochemical"}, "PKCβII": {"target": "T4, PKCβII (Homo sapiens, UniProt P05771)", "T4 construct": "purchased Upstate", "T4 sequence (P05771 1-673 isoform P05771-2)": "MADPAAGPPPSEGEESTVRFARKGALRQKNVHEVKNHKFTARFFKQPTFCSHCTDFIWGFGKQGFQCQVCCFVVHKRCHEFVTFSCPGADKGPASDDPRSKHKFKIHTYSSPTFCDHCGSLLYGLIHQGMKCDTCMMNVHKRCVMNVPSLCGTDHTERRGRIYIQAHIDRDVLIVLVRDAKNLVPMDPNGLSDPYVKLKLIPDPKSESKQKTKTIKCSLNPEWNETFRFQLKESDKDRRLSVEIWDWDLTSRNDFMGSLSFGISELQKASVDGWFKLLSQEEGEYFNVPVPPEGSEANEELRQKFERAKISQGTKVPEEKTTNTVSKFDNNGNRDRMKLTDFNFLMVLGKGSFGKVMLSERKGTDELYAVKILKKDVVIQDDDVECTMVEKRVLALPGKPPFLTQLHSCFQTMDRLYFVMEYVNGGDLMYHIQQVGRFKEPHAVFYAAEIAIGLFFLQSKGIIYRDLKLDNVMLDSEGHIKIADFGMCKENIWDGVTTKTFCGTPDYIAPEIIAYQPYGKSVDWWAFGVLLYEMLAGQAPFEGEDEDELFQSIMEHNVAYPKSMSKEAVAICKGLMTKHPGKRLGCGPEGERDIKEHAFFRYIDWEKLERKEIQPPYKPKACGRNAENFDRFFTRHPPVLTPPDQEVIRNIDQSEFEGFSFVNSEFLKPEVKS", "test": "Upstate kinase Profiler counter-screening", "format": "biochemical"}, "PKCε": {"target": "T5, PKCε (Homo sapiens, UniProt Q02156)", "T5 construct": "purchased Upstate", "T5 sequence (Q02156 1-737)": "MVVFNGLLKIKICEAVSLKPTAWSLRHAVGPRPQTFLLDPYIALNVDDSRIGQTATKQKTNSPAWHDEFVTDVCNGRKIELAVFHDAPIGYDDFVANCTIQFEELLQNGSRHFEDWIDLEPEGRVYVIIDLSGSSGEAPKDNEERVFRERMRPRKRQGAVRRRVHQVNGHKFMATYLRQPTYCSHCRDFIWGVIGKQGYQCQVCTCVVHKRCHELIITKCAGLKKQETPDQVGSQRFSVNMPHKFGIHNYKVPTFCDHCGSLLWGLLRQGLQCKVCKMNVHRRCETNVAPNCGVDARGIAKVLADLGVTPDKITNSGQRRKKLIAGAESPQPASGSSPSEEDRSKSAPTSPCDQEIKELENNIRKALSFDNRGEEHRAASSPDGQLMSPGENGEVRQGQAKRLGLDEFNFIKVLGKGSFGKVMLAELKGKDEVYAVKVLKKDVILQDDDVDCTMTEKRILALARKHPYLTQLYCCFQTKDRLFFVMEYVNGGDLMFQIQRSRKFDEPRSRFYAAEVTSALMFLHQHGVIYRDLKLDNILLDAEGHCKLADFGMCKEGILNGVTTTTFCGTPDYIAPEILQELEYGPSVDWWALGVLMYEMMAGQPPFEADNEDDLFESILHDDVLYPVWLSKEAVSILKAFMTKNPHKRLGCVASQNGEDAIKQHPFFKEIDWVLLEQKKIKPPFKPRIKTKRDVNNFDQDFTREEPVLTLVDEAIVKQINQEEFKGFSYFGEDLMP", "test": "Upstate kinase Profiler counter-screening", "format": "biochemical"}, "[1]": {"test_system": "tumor cell lines including the standard NCI panel", "conditions": "inhibition of CDK2/CDK1 in tumor cells"}, "[2]": {"test_system": "various human tumor cell lines", "conditions": "read-out: Mean In-Cell IC50, 24 hours exposure", "quoted_text": "(§1) The level of activation of apoptosis was also assessed by determining the levels of activated caspase in each cell line. […] The cells were evaluated fluorometrically for levels of activated caspase six hours post washout. Samples of each cell line were also subjected to SDS-PAGE and subsequently immunoblotted for p85 PARP caspase cleavage product."}, "Blk": {"target": "Blk (Mus musculus, UniProt P16277)", "sequence (P16277 2-499 limits assumed)": "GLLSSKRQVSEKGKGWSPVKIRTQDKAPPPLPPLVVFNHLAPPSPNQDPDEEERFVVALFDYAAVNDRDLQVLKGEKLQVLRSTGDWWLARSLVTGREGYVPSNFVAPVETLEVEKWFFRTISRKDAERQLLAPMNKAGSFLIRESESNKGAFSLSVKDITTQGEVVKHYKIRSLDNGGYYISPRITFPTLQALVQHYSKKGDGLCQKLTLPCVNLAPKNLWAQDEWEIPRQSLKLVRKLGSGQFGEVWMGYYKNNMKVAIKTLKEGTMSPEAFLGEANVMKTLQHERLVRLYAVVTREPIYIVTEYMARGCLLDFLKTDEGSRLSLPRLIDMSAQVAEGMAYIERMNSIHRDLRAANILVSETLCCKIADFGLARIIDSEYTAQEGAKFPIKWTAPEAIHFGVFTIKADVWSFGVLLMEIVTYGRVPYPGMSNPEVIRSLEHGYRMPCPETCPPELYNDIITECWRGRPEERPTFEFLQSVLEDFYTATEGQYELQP"}, "tumor [3]": {"test_system": "tumor", "conditions": "for Status: 4-week schedule", "text": "Each 28-day dosing cycle comprising once weekly administration for three weeks with a week off."}, "CDK6/cyclinD3": {"target": "T6, CDK6/cyclinD3 (Homo sapiens, UniProt Q00534)", "T6 construct": "purchased Upstate", "T6 sequence (Q00534 whole entry, species assumed)": "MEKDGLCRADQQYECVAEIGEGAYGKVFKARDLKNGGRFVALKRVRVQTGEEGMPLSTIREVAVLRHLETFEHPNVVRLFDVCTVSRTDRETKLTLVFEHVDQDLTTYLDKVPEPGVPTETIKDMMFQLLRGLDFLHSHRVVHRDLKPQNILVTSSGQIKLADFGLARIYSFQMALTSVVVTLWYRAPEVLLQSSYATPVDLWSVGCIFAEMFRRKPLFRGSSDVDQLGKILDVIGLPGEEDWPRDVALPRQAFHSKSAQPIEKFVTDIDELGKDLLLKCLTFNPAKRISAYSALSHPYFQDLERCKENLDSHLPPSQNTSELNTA", "T6 sequence (P30281 whole entry partner, species assumed)": "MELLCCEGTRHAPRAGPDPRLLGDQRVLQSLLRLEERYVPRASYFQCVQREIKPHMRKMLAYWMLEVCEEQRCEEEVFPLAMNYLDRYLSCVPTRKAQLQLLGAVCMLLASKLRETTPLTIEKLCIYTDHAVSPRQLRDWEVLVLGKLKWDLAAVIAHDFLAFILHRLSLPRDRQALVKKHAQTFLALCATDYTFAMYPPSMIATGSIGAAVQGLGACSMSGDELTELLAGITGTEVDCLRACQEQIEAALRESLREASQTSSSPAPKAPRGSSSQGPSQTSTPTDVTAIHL", "test": "Upstate kinase Profiler counter-screening", "format": "biochemical", "conditions": "at 1 μM"}, "[4]": {"test_system": "various human tumor cell lines", "conditions": "for Caspase Activation (number of sensitive cell lines out of total tested/single exposure): two hour exposure to less than 0.1 micromolar", "quoted_text": "as §1"}, "[5]": {"test_system": "lymphocyte proliferation (BrdU incorporation)", "description": "The samples were collected in tubes containing heparin and shipped to a central laboratory for evaluation. Whole blood from each sample was diluted 1:5 in complete RPMI media and 200 microliter aliquots were added to wells of a 96-well plate. Samples from each time point were either stimulated with PHA (0.01 mg/ml final concentration), or not stimulated. […] Samples were stained with FITC conjugated anti-CD45 antibody. RBC's were lysed and the remaining cells were fixed, permeabilized and treated with DNase. The samples were then incubated with an anti-BrdU antibody. Washed cells were re-suspended and the CD45 and BrdU-positive and −negative populations were detected by FACS. FIGS. 10, 12A, and 12B show the percent of BrdU incorporation for samples taken for various doses."}, "tumor [6]": {"test_system": "tumor", "conditions": "various dosages, 2 hour or 8 hour IV infusion, 21-day dosing cycle"}}, "note": "pIC50: −log10 of the molar value. Read-outs that look alike come from different tables or passages of the source.", "data": [{"smiles": "CCc1cnn2c(NCc3ccc[n+]([O-])c3)cc(N3CCCC[C@H]3CCO)nc12", "note": "[Formula II]", "values": [{"measurement": "% remaining activity", "setting": "Rsk2; at 1 μM", "result": 104, "unit": "%"}, {"measurement": "% remaining activity", "setting": "Rsk2; at 10 μM", "result": 76, "unit": "%"}, {"measurement": "% remaining activity", "setting": "MSK1; at 1 μM", "result": 94, "unit": "%"}, {"measurement": "% remaining activity", "setting": "MSK1; at 10 μM", "result": 97, "unit": "%"}, {"measurement": "exposure completely suppressing DNA synthesis", "setting": "A2780 cells", "result": "greater than 0.5 micromolar"}, {"measurement": "exposure showing accumulation of subG1 (apoptotic cells)", "setting": "A2780 cells", "result": "greater than 0.5 micromolar"}, {"measurement": "body-weight loss over the course of the experiment", "setting": "maximum dosage level (48 mg/kg IP daily for 10 days)", "result": "about 5%"}, {"measurement": "MTD", "setting": "once per day IP for 7 days, dose inducing 20% loss of body weight", "result": 60, "unit": "mg/kg"}, {"measurement": "% remaining activity", "setting": "cSRC; at 1 μM", "result": 117, "unit": "%"}, {"measurement": "% remaining activity", "setting": "cSRC; at 10 μM", "result": 111, "unit": "%"}, {"measurement": "% remaining activity", "setting": "PKCβII; at 1 μM", "result": 110, "unit": "%"}, {"measurement": "% remaining activity", "setting": "PKCβII; at 10 μM", "result": 113, "unit": "%"}, {"measurement": "% remaining activity", "setting": "PKCε; at 1 μM", "result": 93, "unit": "%"}, {"measurement": "% remaining activity", "setting": "PKCε; at 10 μM", "result": 88, "unit": "%"}, {"measurement": "number of tumor cell lines with cell cycle arrest and apoptosis", "setting": "[1]", "result": "more than 100 tumor cell lines"}, {"measurement": "pIC50", "setting": "[2]; Bladder", "result": 8.00}, {"measurement": "pIC50", "setting": "[2]; Breast", "result": 8.10}, {"measurement": "pIC50", "setting": "[2]; Colon", "result": 7.77}, {"measurement": "pIC50", "setting": "[2]; Leukemia", "result": 8.22}, {"measurement": "pIC50", "setting": "[2]; Liver", "result": 8.10}, {"measurement": "pIC50", "setting": "[2]; Lymphoma (NHL)", "result": 8.15}, {"measurement": "pIC50", "setting": "[2]; Mantle Cell lymphoma", "result": 8.15}, {"measurement": "pIC50", "setting": "[2]; Melanoma", "result": 8.05}, {"measurement": "pIC50", "setting": "[2]; NSCLC", "result": 7.85}, {"measurement": "pIC50", "setting": "[2]; Ovarian", "result": 7.85}, {"measurement": "pIC50", "setting": "[2]; Pancreatic", "result": 7.82}, {"measurement": "pIC50", "setting": "[2]; Prostate", "result": 7.92}, {"measurement": "pIC50", "setting": "[2]; SCLC", "result": 8.22}, {"measurement": "% remaining activity", "setting": "Blk; at 1 μM", "result": 69, "unit": "%"}, {"measurement": "% remaining activity", "setting": "Blk; at 10 μM", "result": 100, "unit": "%"}, {"measurement": "effect on tumor volume", "setting": "A549 NSCLC xenografts; 5 dosing schedules (20, 29, 52, 3x17, 87 mg/kg), total 260 mg/kg", "result": "regression in tumor volume and mass"}, {"measurement": "% inhibition observed at dosage of 5 mg/kg Formula II", "setting": "A549 NSCLC xenografts; first Formula II column", "result": 73, "unit": "%"}, {"measurement": "% inhibition observed at dosage of 5 mg/kg Formula II", "setting": "A549 NSCLC xenografts; second Formula II column", "result": "160 (regression) %"}, {"measurement": "Status", "setting": "tumor [3]; adenoidcystic carcinoma patient, 7.11 mg/m^2, 5 cycles", "result": "disease progression"}, {"measurement": "Status", "setting": "tumor [3]; melanoma patient, 3.63 mg/m^2, 9 cycles", "result": "disease progression"}, {"measurement": "Status", "setting": "tumor [3]; prostate patient, 3.63 mg/m^2, 4 cycles", "result": "disease progression"}, {"measurement": "Status", "setting": "tumor [3]; pseudomyxoma patient, 2.59 mg/m^2, 9 cycles", "result": "off study with stable disease"}, {"measurement": "tumor markers (FIG. 11, incl. CA125)", "setting": "tumor [3]; pseudomyxoma peritonei patient, after 6 cycles of 28 day treatment at 2.59 mg/m^2", "result": "falling tumor markers"}, {"measurement": "responses by RECIST criteria in the population", "setting": "tumor [3]; various dosages, 2 hour IV infusion, 28-day dosing cycle", "result": "No complete or partial responses"}, {"measurement": "% remaining activity", "setting": "CDK6/cyclinD3", "result": 12, "unit": "%"}, {"measurement": "Caspase Activation (number of sensitive cell lines out of total tested/single exposure)", "setting": "[4]; Bladder", "result": "1 of 2"}, {"measurement": "Caspase Activation (number of sensitive cell lines out of total tested/single exposure)", "setting": "[4]; Breast", "result": "6 of 7"}, {"measurement": "Caspase Activation (number of sensitive cell lines out of total tested/single exposure)", "setting": "[4]; Colon", "result": "5 of 9"}, {"measurement": "Caspase Activation (number of sensitive cell lines out of total tested/single exposure)", "setting": "[4]; Leukemia", "result": "5 of 6"}, {"measurement": "Caspase Activation (number of sensitive cell lines out of total tested/single exposure)", "setting": "[4]; Liver", "result": "2 of 2"}, {"measurement": "Caspase Activation (number of sensitive cell lines out of total tested/single exposure)", "setting": "[4]; Lymphoma (NHL)", "result": "8 of 8"}, {"measurement": "Caspase Activation (number of sensitive cell lines out of total tested/single exposure)", "setting": "[4]; Mantle Cell lymphoma", "result": "3 of 4"}, {"measurement": "Caspase Activation (number of sensitive cell lines out of total tested/single exposure)", "setting": "[4]; Melanoma", "result": "9 of 9"}, {"measurement": "Caspase Activation (number of sensitive cell lines out of total tested/single exposure)", "setting": "[4]; NSCLC", "result": "8 of 9"}, {"measurement": "Caspase Activation (number of sensitive cell lines out of total tested/single exposure)", "setting": "[4]; Ovarian", "result": "5 of 7"}, {"measurement": "Caspase Activation (number of sensitive cell lines out of total tested/single exposure)", "setting": "[4]; Pancreatic", "result": "11 of 15"}, {"measurement": "Caspase Activation (number of sensitive cell lines out of total tested/single exposure)", "setting": "[4]; Prostate", "result": "4 of 5"}, {"measurement": "Caspase Activation (number of sensitive cell lines out of total tested/single exposure)", "setting": "[4]; SCLC", "result": "2 of 6"}, {"measurement": "share of cell lines tested with caspase activation and apoptosis detected", "setting": "[4]; single exposure", "result": "over 85%"}, {"measurement": "% BrdU incorporated at 8 hrs post-infusion", "setting": "[5]; Patient A, 1.85 mg/M2, Pre-Dose 28", "result": 65, "unit": "%"}, {"measurement": "% BrdU incorporated at 8 hrs post-infusion", "setting": "[5]; Patient B, 3.7 mg/M2, Pre-Dose 10", "result": 13, "unit": "%"}, {"measurement": "% BrdU incorporated at 8 hrs post-infusion", "setting": "[5]; Patient C, 7.4 mg/M2, Pre-Dose 51", "result": 11, "unit": "%"}, {"measurement": "% BrdU incorporated at 8 hrs post-infusion", "setting": "[5]; Patient F, 50 mg/M2, Pre-Dose 33", "result": 1, "unit": "%"}, {"measurement": "% BrdU incorporated at 8 hrs post-infusion", "setting": "[5]; Patient G, 58 mg/M2, Pre-Dose 23", "result": 0.7, "unit": "%"}, {"measurement": "% BrdU incorporated at 8 hrs post-infusion", "setting": "[5]; Patient H, 41.4 mg/M2, Pre-Dose 41", "result": 45, "unit": "%"}, {"measurement": "responses by RECIST criteria in the population", "setting": "tumor [6]", "result": "no complete or partial responses"}]}]}
